The results in this text go back to patent US5629173A, “Methods of use of serine protease variants having peptide ligase activity” (priority 1995, dated 1997).

B1: wild type: wild type subtilisin from Bacillus amyloliquefaciens (subtilisin BPN') (protein, UniProt P00782 108-382, looked up)
Subtilisin BPN': AQSVPYGVSQIKAPALHSQGYTGSNVKVAVIDSGIDSSHPDLKVAGGASMVPSETNPFQDNNSHGTHVAGTVAALNNSIGVLGVAPSASLYAVKVLGADGSGQYSWIINGIEWAIANNMDVINMSLGGPSGSAALKAAVDKAVASGVVVVAAAGNEGTSGSSSTVGYPGKYPSVIAVGAVDSSNQRASFSSVGPELDVMAPGVSIQSTLPGNKYGAYNGTSMASPHVAGAAALILSKHPNWTNTQVRSSLENTTTKLGDSFYYGKGLINVQAAAQ

Residues, ends and D or L forms follow the SMILES beside them.

T1 sequence (P00782 108-382 S328C/P332A): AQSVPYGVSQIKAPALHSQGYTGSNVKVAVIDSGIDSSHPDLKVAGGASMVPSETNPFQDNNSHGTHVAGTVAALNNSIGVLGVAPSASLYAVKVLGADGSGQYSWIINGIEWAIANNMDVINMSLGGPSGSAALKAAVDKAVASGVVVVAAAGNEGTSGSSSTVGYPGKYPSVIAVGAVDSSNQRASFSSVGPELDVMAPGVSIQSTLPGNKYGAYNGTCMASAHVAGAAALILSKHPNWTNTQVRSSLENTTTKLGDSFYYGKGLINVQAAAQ

System in one assay: not listed separately
Kind of assay: Esterase activity, hydrolysis of activated ester substrate. The assay is classed as biochemical. The note with it: ratio of the apparent second order rate constants (kcat/KM). As for the experimental part: The esterase and amidase activities were obtained from initial rate measurements using a Kontron Uvikon 860 spectrophotometer. The assay for esterase activity utilized the substrate s-Ala-Ala-Pro-Phe-Sbz at (25±0.2° C.) in 100 mM Tris-HCl (pH 8.60), 4% (v/v) dimethylsulfoxide, 0.005% (v/v) Tween 80. With the non-cysteine containing proteases, DTNB (Ellman (1959), Arch. Biochem. Biophys., 82, 70-77) was added to a concentration of 37.5 μM to visualize the release of thiolbenzoate upon hydrolysis of the substrate. […] The amidase activities were measured under identical conditions by following the increase in absorbance at 412 nm upon hydrolysis of p-nitroanilide from s-Ala-Ala-Pro-Phe-pNA.
For the molecule B1, the esterase/amidase is on record as 4.8.

The next assay has as its target T1, peptide ligase acylated by s-Ala-Ala-Pro-Phe (Bacillus amyloliquefaciens, UniProt P00782, P332A/S328C).
T1 construct: made in house
Kind of assay: Aminolysis efficiency of di- and tri-amino acid peptide nucleophiles (Table IV). It is filed as biochemical.
Conditions: not given
On the procedure: Enzymatic ligation of peptides were performed at (25±0.2° C.) in 90 mM Tricine (pH 8.0), 2% (v/v) dimethylacetamide, 0.005% (v/v) Tween 80. The comparison between substrates having different leaving groups was simplified by measuring initial reaction rates at a low substrate concentrations (70-75 μM) and at a higher concentration (1.33 mM) where rates are proportional to kcat/KM and the kcat, respectively (Fersht (1977) in Enzyme Structure and Mechanism, W. H. Freeman & Co. USA). The higher substrate concentration may still be below the KM for some of the substrates, so that values for kcat are less accurate. The aminolysis with di- and tripeptides was performed at low peptide concentrations. The aminolysis rate V=kaminolysis [N][E-Ac]/KN, where [N] is the nucleophile concentration, [E-Ac] is the concentration of acyl-enzyme intermediate and KN is the dissociation constant for the binding of the nucleophile to the acyl-enzyme intermediate (Riechmann and Kasche (1985), Biochem. Biophys. Acta., 830, 164-172). Since KN=[N][E-Ac]/[N·E-Ac] a change in [N] will result in a change in [E-Ac] but at low [N], [E-Ac]>>[N·E-Ac] and kaminolysis /KN (the apparent second order rate constants for the reaction between the different nucleophile and the acyl-enzyme intermediate) may be compared. The concentrations of the peptide nucleophiles, and the calibration of the absorbance data for the different ligation products was obtained from amino acid composition analysis. The rates of peptide ligation were measured at four or five different concentrations for each nucleophile.
Ligation reactions were analyzed by taking aliquots at different times and analyzing the peptide products by C-18 reversed phase HPLC. Peptides were eluted in a gradient of acetonitrile/0.1% TFA in water/0.1% TFA and the absorbance at 214 nm monitored. Amino acid composition analysis was used to confirm both the hydrolysis and aminolysis products and to calibrate the absorbance values. The structures of the hydrolysis and aminolysis products (using the dipeptide Ala-Phe-amide as a nucleophile) were confirmed by mass spectrometrical analysis.
Regarding `N=C(N)NCCC[C@H](N)C(=O)N[C@@H](Cc1ccccc1)C(N)=O` [RF, Arg-Phe-amide], the “faster to aminolyze than Arg-Gly” value is reported as around 100 fold.

Still in this assay, the particulars now being: compared with NH2-Gly-Phe-amide.
Take `NC(=O)CNC(=O)[C@@H](N)Cc1ccccc1` [FG, Phe-Gly-amide] (H-Phe-Gly-NH2): the “quality as ligation substrate, in words” value is listed as “extremely poor ligation substrates”.

Still in this assay, the particulars now being: peptides amidated at the carboxy terminus; low peptide concentrations; pH 8.0, 25 C.
Consider `C[C@H](N)C(=O)N[C@@H](Cc1ccccc1)C(N)=O` [AF, Ala-Phe-amide], for which the “apparent second order rate constants for the reaction of the nucleophile with the acylated peptide ligase, compared” value (shortened to “apparent second order rate constants … compared”) is given as 1.0. For the molecule `C[C@H](N)C(=O)N[C@@H](Cc1ccccc1)C(=O)N[C@@H](C)C(N)=O` [AFA, Ala-Phe-Ala-amide] (H-Ala-Phe-Ala-NH2), the “apparent second order rate constants … compared” value came out at 2.0.

In the case of `NC(=O)CNC(=O)[C@@H](N)Cc1ccccc1` [FG, Phe-Gly-amide] (H-Phe-Gly-NH2), the “apparent second order rate constants … compared” value came to 0.006. As to `C[C@H](NC(=O)CN)C(N)=O` [GA, Gly-Ala-amide] (H-Gly-Ala-NH2), the “apparent second order rate constants … compared” value is given as 0.1. Still for that read-out and setting: for `NCC(=O)N[C@@H](Cc1ccccc1)C(N)=O` [GF, Gly-Phe-amide] (H-Gly-Phe-NH2) the value was 0.8; for `CC(C)C[C@H](NC(=O)CN)C(N)=O` [GL, Gly-Leu-amide], 0.3. As for `CC(C)C[C@H](N)C(=O)N[C@@H](Cc1ccccc1)C(N)=O` [LF, Leu-Phe-amide] (H-Leu-Phe-NH2), the “apparent second order rate constants … compared” value worked out at 0.3. Take `CC(C)C[C@H](N)C(=O)N[C@@H](Cc1ccccc1)C(=O)N[C@@H](CC(=O)O)C(N)=O` [LFD, Leu-Phe-Asp-amide] (H-Leu-Phe-Asp-NH2): the “apparent second order rate constants … compared” value turned out to be 0.3. Still for that read-out and setting: under `N=C(N)NCCC[C@H](N)C(=O)N[C@@H](Cc1ccccc1)C(N)=O` [RF, Arg-Phe-amide] stands 2.0. Still for that read-out and setting: under `N=C(N)NCCC[C@H](N)C(=O)NCC(N)=O` [RG, Arg-Gly-amide] (H-Arg-Gly-NH2) stands 0.04.
